# Data published in BindingDB's records for doi:10.1021/jm00151a024 (1986).
# Assay: Apparent binding affinity for Alanine racemase from Pseudomonas aeruginosa
row,SMILES,Ki
1,"NC(C(Cl)Cl)P(=O)(O)O (configuration not stated) [(1-Amino-2,2-dichloro-ethyl)-phosphonic acid]",2000 µM
2,NC(CCl)P(=O)(O)O (configuration not stated) [(1-Amino-2-chloro-ethyl)-phosphonic acid],820 µM
